Experimental findings from paper PMC3481288 (The Journal of Biological Chemistry, 2012) are described below.

Molecules are shown by their SMILES.

This test has as its target T1, PBP2ALGA (Staphylococcus aureus, UniProt F4NA57).
T1 sequence (F4NA57 23-665 limits assumed): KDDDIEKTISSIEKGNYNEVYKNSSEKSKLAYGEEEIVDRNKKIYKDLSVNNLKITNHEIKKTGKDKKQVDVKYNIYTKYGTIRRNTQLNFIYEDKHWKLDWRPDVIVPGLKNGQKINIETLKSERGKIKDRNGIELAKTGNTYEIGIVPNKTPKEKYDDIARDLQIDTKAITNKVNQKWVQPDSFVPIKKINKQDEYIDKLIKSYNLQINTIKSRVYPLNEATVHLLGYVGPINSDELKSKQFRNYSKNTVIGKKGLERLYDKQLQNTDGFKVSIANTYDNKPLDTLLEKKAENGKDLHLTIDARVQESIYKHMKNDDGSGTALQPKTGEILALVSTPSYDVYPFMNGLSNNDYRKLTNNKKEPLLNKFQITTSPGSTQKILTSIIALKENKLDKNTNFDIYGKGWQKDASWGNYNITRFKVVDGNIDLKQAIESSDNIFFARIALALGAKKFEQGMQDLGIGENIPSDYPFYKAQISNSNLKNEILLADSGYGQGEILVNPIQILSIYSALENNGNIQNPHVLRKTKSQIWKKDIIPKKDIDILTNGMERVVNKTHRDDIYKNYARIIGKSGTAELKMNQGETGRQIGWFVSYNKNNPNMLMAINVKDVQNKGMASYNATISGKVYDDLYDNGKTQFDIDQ
The test can be described thus: Bocillin FL competition, SDS-PAGE fluorescence. The test is classed as binding.

Take `CO[C@@]1(NC(=O)Cc2cccs2)C(=O)N2C(C(=O)O)=C(COC(N)=O)CS[C@@H]21` [cefoxitin]: the IC50 is 501 µM.

The molecule `Cc1onc(-c2ccccc2)c1C(=O)N[C@@H]1C(=O)N2[C@@H]1SC(C)(C)[C@@H]2C(=O)O` [oxacillin] had an IC50 of 212 µM.
